Here are results for 36 compounds from US6875743B1, “Cell adhesion inhibitors” (Biogen, Inc., priority 1996, dated 2005).

Numbered stars: 1 amine (or outer) side, 2 acyl side, 3 side chain; on linkers, the order of the positions; unused ones are H or OH. Square brackets hold non-standard residues; d marks the D form. Peptide text beside a SMILES is read from it. * marks the point of attachment. ξ: configuration not given here. X1 = O=C(Cc1ccc(N[*:1])cc1)[*:2]; NH(2-Me-phenyl) = Cc1ccccc1N*; PhAc = O=C(Cc1ccccc1)*; Boc = CC(C)(C)OC(=O)*; CO = O=C([*:1])[*:2]; ξNva = CCCC(N)C(=O)O; Ahx = NCCCCCC(=O)O

In the first assay the target is T1, VLA4 (Homo sapiens, UniProt P05556+P13612).
T1 construct: endogenous in cells; host or cells: Ramos cells
T1 sequence (P13612 34-1032): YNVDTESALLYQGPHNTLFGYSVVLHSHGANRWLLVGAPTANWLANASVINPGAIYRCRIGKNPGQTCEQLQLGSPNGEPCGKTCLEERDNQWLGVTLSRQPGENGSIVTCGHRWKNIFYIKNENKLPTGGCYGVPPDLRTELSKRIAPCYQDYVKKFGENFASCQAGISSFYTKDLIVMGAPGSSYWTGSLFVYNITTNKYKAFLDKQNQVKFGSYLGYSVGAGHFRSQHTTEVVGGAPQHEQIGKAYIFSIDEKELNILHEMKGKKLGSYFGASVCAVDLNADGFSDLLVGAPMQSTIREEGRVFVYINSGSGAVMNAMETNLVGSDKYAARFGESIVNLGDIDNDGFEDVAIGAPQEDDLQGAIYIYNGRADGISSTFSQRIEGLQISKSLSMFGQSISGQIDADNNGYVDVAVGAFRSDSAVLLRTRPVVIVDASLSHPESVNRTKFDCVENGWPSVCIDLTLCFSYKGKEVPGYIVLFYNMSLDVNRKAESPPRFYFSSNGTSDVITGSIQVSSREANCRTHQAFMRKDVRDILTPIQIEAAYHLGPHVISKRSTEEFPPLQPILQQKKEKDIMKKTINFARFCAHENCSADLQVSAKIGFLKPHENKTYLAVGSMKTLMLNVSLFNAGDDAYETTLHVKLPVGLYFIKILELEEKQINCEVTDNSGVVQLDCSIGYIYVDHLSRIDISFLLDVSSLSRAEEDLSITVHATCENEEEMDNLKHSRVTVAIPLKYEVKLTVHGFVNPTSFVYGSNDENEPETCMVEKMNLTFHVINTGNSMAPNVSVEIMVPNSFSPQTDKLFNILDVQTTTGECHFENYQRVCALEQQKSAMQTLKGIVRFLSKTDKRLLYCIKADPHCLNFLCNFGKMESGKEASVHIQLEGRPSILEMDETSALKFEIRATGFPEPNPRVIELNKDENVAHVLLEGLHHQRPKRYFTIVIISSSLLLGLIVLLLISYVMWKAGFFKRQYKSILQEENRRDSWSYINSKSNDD
T1 sequence (P05556 21-798): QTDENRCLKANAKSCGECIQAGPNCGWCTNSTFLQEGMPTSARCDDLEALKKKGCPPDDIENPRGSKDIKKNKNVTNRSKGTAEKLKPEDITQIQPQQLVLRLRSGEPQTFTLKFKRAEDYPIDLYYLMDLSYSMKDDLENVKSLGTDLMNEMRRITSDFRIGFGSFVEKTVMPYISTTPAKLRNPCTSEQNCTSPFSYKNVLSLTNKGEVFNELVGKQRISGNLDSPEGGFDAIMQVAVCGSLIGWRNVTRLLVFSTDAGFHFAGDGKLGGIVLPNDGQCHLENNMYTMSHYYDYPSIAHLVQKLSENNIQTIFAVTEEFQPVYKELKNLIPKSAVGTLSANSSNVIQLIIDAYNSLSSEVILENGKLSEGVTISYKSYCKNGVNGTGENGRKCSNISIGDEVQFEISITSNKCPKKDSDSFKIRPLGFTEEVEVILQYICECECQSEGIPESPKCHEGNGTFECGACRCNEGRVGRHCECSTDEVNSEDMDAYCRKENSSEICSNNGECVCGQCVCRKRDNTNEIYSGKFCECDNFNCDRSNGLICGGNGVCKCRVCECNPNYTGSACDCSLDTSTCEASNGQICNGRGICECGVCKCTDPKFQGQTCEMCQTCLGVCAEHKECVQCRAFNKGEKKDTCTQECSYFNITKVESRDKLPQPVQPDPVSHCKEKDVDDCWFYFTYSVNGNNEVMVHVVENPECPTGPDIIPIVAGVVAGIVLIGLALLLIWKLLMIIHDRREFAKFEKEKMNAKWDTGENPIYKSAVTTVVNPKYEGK
Put plainly: Inhibition of VLA4-dependent adhesion to BSA-CS1. The class given is cell-based.
Details: not given
From the text:
For example, the cell adhesion inhibitory activity of these compounds may be measured by determining the concentration of inhibitor required to block the binding of VLA-4-expressing cells to fibronectin- or CS1-coated plates. In this assay microtiter wells are coated with either fibronectin (containing the CS-1 sequence) or CS-1. If CS-1 is used, it must be conjugated to a carrier protein, such as bovine serum albumin, in order to bind to the wells. Once the wells are coated, varying concentrations of the test compound are then added together with appropriately labelled, VLA-4-expressing cells. Alternatively, the test compound may be added first and allowed to incubate with the coated wells prior to the addition of the cells. The cells are allowed to incubate in the wells for at least 30 minutes. Following incubation, the wells are emptied and washed. Inhibition of binding is measured by quantitating the fluorescence or radioactivity bound to the plate for each of the various concentrations of test compound, as well as for controls containing no test compound.
VLA-4-expressing cells that may be utilized in this assay include Ramos cells, Jurkat cells, A375 melanoma cells, as well as human peripheral blood lymophocytes (PBLs). The cells used in this assay may be fluorescently or radioactively labelled.
This assay was used to assess the potency of VLA4-directed inhibitory compounds of this invention.
We dissolved BSA-SMCC (Pierce Chemical, Rockford, Ill.; Catalog #77115) in H2O at a concentration of 10 mg/mL. [SEQ ID NO:4]: […](“Cys-Tyr-CS1 peptide”), which we synthesized by conventional solid phase chemistry and purified by HPLC, was dissolved in 10 mM HEPES pH 5, 50 mM NaCl and 0.1 mM EDTA also at a concentration of 10 mg/mL. We then mixed 500 μL of BSA-SMCC, 250 μL of Cys-Tyr-CS1 peptide and 75 μL of 1 mM HEPES pH 7.5 and allowed the conjugation reaction to proceed for 30 minutes. We stopped the reaction by adding 1 μL of beta-mercaptoethanol. Samples were analyzed for cross-linking by SDS-PAGE.
We coated the wells of a Linbro titertek polystyrene 96-well flat bottom plate (Flow Laboratories, Maclean, Va.; catalog #76-231-05) with 100 μL of the above-described BSA-CS1 solution diluted to 1 μg/mL in 0.05 M NaHCO3 (15 mM NaHCO3, 35 mM Na2CO3) pH 9.2. Some wells were not coated with CS1 in order to assess non-specific cell binding (NSB). The plate was then incubated overnight at 4° C.
Following this incubation, the contents of the wells were removed by inverting and blotting the plate. All of the wells were then blocked with 100 μL of 1% BSA in PBS, 0.02% NaN3, for a minimum of one hour at room temperature.
Ramos cells are grown, maintained and labelled in RPMI 1640 culture medium containing 1% BSA. Just prior to running the assay, we added 2′,7′-bis-(2-carboxyethyl)-5 (and -6) carboxyfluorescein acetoxymethyl ester (“BCECF-AM”; Molecular Probes Inc., Eugene, Oreg.; catalog #B-1150) to a final concentration of 2 μM to a culture of Ramos cells (4×10^6 cells/mL). We incubated the cells for 20 minutes at 37° C.
Following labelling, the cells were washed twice in assay buffer (24 mM TRIS, 137 mM NaCl, 2.7 mM KCl, pH 7.4, containing 0.1% BSA and 2 mM glucose) to remove any cations originating from the culture medium. The cells were then resuspended in assay buffer to 4×10^6 cells/mL and 2 mM MnCl2 was added to upregulate VLA4 on the surface of the cells.
Immediately prior to running the assay, we removed the BSA blocking solution from the 96-well plates and washed the wells with 100 μL of assay buffer. We then added to each well 25 μL of test cell adhesion inhibitory compound at 2× the final concentration and 25 μL of the labelled Ramos cells. […] Each concentration of compound was tested in triplicate. The compound and cells are allowed to incubate for 30 minutes at room temperature.
Turning to `Cc1ccccc1NC(=O)Nc1ccc(CC(=O)N[C@@H](CC(C)C)C(=O)N[C@@H](CC(=O)O)C(=O)N[C@H](C(=O)N2CCC[C@H]2C(=O)N[C@@H](CO)C(=O)N[C@H](C(=O)O)[C@@H](C)O)C(C)C)cc1` [Compound 338] ({NH(2-Me-phenyl)-CO}-[X1]LDVPST-OH), the IC50 is below 50 nM.

The same assay, now with this note: binding of BCECF-labelled Ramos cells to BSA-CS1 coated wells, 2 mM MnCl2; read-out: IC50.
As for `CSCC[C@H](NC(=O)Cc1ccc(NC(=O)Nc2ccccc2C)cc1)C(=O)N[C@@H](CC(=O)O)C(=O)N[C@H](C(N)=O)C(C)C` [Compound 221], the half-maximal inhibitory concentration (IC50) was below 50 nM.
For the compound `CSCC[C@H](NC(=O)Cc1ccc(NC(=O)Nc2ccccc2C)cc1)C(=O)N[C@@H](CC(=O)O)C(=O)N[C@H](CC(N)=O)C(N)=O` [Compound 226], the IC50 was below 50 nM.
In the case of `Cc1ccccc1NC(=O)Nc1ccc(CC(=O)N2CCC[C@H]2C(=O)N[C@@H](CCC(=O)O)C(=O)O)cc1` [Compound 416], the concentration for half-maximal inhibition (IC50) is 50 to 10000 nM.
The same measure, in the same setting: in the case of `CCCCCCNC(=O)C(NC(=O)C(CC(=O)O)NC(=O)C(CC(C)C)NC(=O)CCc1ccc(O)cc1)C(C)C` (stereo not drawn) [Compound 119] it was above 10000 nM; in that of `Cc1ccccc1NC(=O)Nc1ccc(CC(=O)NC(CC(C)C)C(=O)N2CN(Cc3ccc4c(c3)OCO4)C(=O)C[C@H]2C(=O)O)cc1` (mixture of isomers) [Compound 363], above 10000 nM.
Consider `CSCC[C@H](NC(=O)Cc1ccc(NC(=O)Nc2ccccc2C)cc1)C(=O)N[C@@H](CC(=O)O)C(=O)N[C@H](C(N)=O)[C@@H](C)O` [Compound 224], for which the half-inhibitory concentration (IC50) was below 50 nM.
As to `CC(C)CC(NC(=O)CCc1ccc(O)cc1)C(=O)NC(CC(=O)O)C(=O)NC(C(=O)N1CCCC1C(=O)O)C(C)C` (stereo not drawn) [Compound 38], the 50% inhibitory concentration (IC50) was above 10000 nM.
On the same count and under the same terms, in the case of `CCCC(NC(=O)Cc1ccccc1)C(=O)N[C@@H](CC(=O)O)C(=O)N[C@H](C(=O)NC)C(C)C` (stereo partly drawn) [Compound 49] (PhAc-[ξNva]-Asp-Val-NHMe) it was above 10000 nM; in that of `Cc1ccccc1NC(=O)Nc1ccc(CC(=O)N[C@@H](CC(C)C)C(=O)N[C@@H](CC(=O)O)C(=O)N[C@H](CCC(=O)O)C(N)=O)cc1` [Compound 238], below 50 nM.
Consider `CC(C)CC(NC(=O)C(Cc1ccc(O)cc1)NC(=O)OC(C)(C)C)C(=O)NC(CC(=O)O)C(=O)NC(C(=O)O)C(C)C` (stereo not drawn) [Compound 66] (Boc-YLDV-OH; configuration not given here), for which the IC50 was above 10000 nM.
`Cc1ccccc1NC(=O)Nc1ccc(CC(=O)N[C@@H](CO)C(=O)N[C@@H](CC(=O)O)C(=O)N[C@H](CC(C)C)C(N)=O)cc1` [Compound 278]: the IC50 was below 50 nM.
Regarding `CSCC[C@H](NC(=O)Cc1ccc(NC(=O)Nc2ccccc2C)cc1)C(=O)N[C@@H](CC(=O)O)C(=O)N[C@@H](CCC(=O)O)C(N)=O` [Compound 223], the half-inhibitory concentration (IC50) is below 50 nM.
Regarding `CSCC[C@H](NC(=O)Cc1ccc(NC(=O)Nc2ccccc2C)cc1)C(=O)N[C@@H](CCC(=O)O)C(=O)N[C@H](C(N)=O)C(C)C` [Compound 309], the IC50 was below 50 nM.
In the case of `Cc1ccccc1NC(=O)Nc1ccc(CC(=O)NC(CCC(N)=O)C(=O)NC(CC(=O)O)C(=O)NC(CO)C(N)=O)cc1` (stereo not drawn) [Compound 307], the IC50 was below 50 nM.
On to `Cc1ccccc1NC(=O)Nc1ccc(CC(=O)N2CCC[C@H]2C(=O)N[C@@H](CC(=O)O)C(=O)N[C@H](CC(C)C)C(=O)O)cc1` [Compound 411], for which the IC50 is below 50 nM.
As to `CC(C)C(NC(=O)C(CC(=O)O)NC(=O)C(CC1CCCCC1)NC(=O)c1cc2ccccc2cn1)C(=O)O` (stereo not drawn) [Compound 85], the IC50 is above 10000 nM.
As for `CNC(=O)[C@@H](CC(C)C)NC(=O)[C@H](CCC(=O)O)NC(=O)[C@@H]1CCCN1C(=O)Cc1ccc(NC(=O)Nc2ccccc2C)cc1` [Compound 414], the IC50 is 50 to 10000 nM.
Same read-out and setting: in the case of `Cc1ccccc1NC(=O)Nc1ccc(CC(=O)N[C@@H](CCC(=O)O)C(=O)N[C@@H](CC(=O)O)C(=O)N[C@@H](CC(C)C)C(N)=O)cc1` [Compound 264] it was below 50 nM.
As to `CC(C)C[C@H](NC(=O)Nc1cnc2ccccc2n1)C(=O)N[C@@H](CC(=O)O)C(=O)N[C@H](C(=O)O)C(C)C` [Compound 380], the concentration for half-maximal inhibition (IC50) is above 10000 nM.
Regarding `Cc1ccccc1NC(=O)Nc1ccc(CC(=O)N2CCC[C@H]2C(=O)N[C@@H](CC(=O)O)C(=O)N[C@@H](CC(=O)O)C(N)=O)cc1` [Compound 241], the IC50 is below 50 nM.
As to `CCC(C)C(NC(=O)C(CC(=O)O)NC(=O)C(CC(C)C)NC(=O)c1ccc2ccccc2n1)C(=O)OC` (stereo not drawn) [Compound 56], the IC50 lay within 50 to 10000 nM.
The same measure, in the same setting: in the case of `Cc1ccccc1NC(=O)Nc1ccc(CC(=O)N2CCC[C@H]2C(=O)N[C@@H](CC(=O)O)C(=O)N[C@@H](Cc2c[nH]c3ccccc23)C(N)=O)cc1` [Compound 250] it was below 50 nM.
As to `Cc1ccccc1NC(=O)Nc1ccc(CC(=O)N2CCC[C@H]2C(=O)N[C@@H](CC(=O)O)C(=O)N[C@@H](CC(C)C)C(N)=O)cc1` [Compound 242], the IC50 is below 50 nM.
Consider `Cc1ccccc1NC(=O)Nc1ccc(CC(=O)N[C@@H](CCC(=O)O)C(=O)N[C@@H](CC(=O)O)C(=O)N[C@H](C(N)=O)C(C)C)cc1` [Compound 265], for which the IC50 was below 50 nM.
On the same count and under the same terms, the same measure for `Cc1ccccc1NC(=O)Nc1ccc(CC(=O)N[C@@H](CC(C)C)C(=O)N[C@@H](CC(=O)O)C(=O)N[C@@H](CC(=O)O)C(N)=O)cc1` [Compound 230]: below 50 nM; for `CSCC[C@H](NC(=O)Cc1ccc(NC(=O)Nc2ccccc2C)cc1)C(=O)N[C@@H](CC(=O)O)C(=O)N[C@@H](CC(C)C)C(N)=O` [Compound 220]: below 50 nM; for `Cc1ccccc1NC(=O)Nc1ccc(CC(=O)N[C@@H](CCC(=O)O)C(=O)N[C@@H](CC(=O)O)C(=O)N[C@H](CCC(=O)O)C(N)=O)cc1` [Compound 271]: below 50 nM.
Regarding `Cc1ccccc1NC(=O)Nc1ccc(CC(=O)N[C@@H](CC(C)C)C(=O)N[C@@H](CC(=O)O)C(=O)N[C@H](C(N)=O)C(C)C)cc1` [Compound 232], the IC50 was below 50 nM.
Take `Cc1ccccc1NC(=O)Nc1ccc(CC(=O)N2CCC[C@H]2C(=O)N[C@@H](CCC(=O)O)C(=O)N[C@H](C(N)=O)C(C)C)cc1` [Compound 313]: the IC50 was below 50 nM.
The same measure, in the same setting: in the case of `Cc1ccc2nc(C(=O)N[C@@H](CC(C)C)C(=O)N[C@@H](CC(=O)O)C(=O)N[C@H](C(=O)O)C(C)C)[nH]c(=O)c2c1` [Compound 370] it was above 10000 nM; in that of `Cc1ccccc1NC(=O)Nc1ccc(CC(=O)N2CCC2C(=O)N[C@@H](CC(=O)O)C(=O)N[C@H](CC(C)C)C(=O)O)cc1` (stereo partly drawn) [Compound 412], 50 to 10000 nM.
With `CCC(C)C(NC(=O)C(CC(=O)O)NC(=O)C(CC(C)C)NC(=O)Cc1ccccc1)C(=O)NC` (stereo not drawn) [Compound 55] (PhAc-Leu-Asp-Ile-NHMe; configuration not given here), the IC50 is above 10000 nM.
With `Cc1ccccc1NC(=O)Nc1ccc(CC(=O)N[C@@H](CCCCNC(=O)CCCCCN)C(=O)N[C@@H](CC(=O)O)C(=O)N[C@H](C(=O)N2CCC[C@H]2C(=O)O)C(C)C)cc1` [Compound 202] ({NH(2-Me-phenyl)-CO}-[X1]K(Ahx)DVP-OH), the IC50 was 50 to 10000 nM.
As for `Cc1ccccc1NC(=O)Nc1ccc(CC(=O)N[C@@H](CO)C(=O)N[C@@H](CC(=O)O)C(=O)N[C@H](C(N)=O)[C@@H](C)O)cc1` [Compound 280], the IC50 was below 50 nM.
Turning to `Cc1ccccc1NC(=O)Nc1ccc(CC(=O)N[C@@H](CCC(N)=O)C(=O)N[C@@H](CC(=O)O)C(=O)N[C@H](C(N)=O)C(C)C)cc1` [Compound 299], the IC50 was below 50 nM.
